{"source": "ChEMBL document CHEMBL1201862", "about": "“PubChem BioAssay data set” (2004)", "key": {"[1]": {"target": "T1, Aminopeptidase N (Plasmodium falciparum FcB1/Columbia, UniProt O96935)", "T1 sequence (O96935 whole entry)": "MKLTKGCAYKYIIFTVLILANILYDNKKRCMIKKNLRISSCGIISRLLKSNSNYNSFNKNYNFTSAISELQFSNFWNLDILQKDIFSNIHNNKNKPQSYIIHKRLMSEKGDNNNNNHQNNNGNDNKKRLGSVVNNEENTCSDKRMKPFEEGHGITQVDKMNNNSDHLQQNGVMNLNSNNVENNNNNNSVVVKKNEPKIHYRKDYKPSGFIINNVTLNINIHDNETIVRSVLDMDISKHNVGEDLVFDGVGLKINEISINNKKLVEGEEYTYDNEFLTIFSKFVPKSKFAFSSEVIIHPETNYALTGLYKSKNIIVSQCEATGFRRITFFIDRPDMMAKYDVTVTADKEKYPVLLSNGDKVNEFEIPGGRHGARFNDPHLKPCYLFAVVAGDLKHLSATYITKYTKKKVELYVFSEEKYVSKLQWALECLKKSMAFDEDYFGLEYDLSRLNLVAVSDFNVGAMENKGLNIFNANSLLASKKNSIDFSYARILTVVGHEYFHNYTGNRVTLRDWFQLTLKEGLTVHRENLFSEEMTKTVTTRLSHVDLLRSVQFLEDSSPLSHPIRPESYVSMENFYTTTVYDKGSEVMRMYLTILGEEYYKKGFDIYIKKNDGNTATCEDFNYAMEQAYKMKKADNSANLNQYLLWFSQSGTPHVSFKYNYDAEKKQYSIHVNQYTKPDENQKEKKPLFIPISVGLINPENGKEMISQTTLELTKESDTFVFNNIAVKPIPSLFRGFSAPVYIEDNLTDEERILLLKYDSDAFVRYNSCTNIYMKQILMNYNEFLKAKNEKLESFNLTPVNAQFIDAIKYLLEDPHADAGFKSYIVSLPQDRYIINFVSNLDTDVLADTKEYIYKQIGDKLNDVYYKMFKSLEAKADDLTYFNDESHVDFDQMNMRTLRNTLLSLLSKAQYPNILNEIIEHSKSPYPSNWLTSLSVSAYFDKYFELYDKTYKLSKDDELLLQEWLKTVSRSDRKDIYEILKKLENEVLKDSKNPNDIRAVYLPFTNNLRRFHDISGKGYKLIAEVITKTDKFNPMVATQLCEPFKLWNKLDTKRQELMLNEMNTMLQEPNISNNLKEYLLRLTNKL", "assay": "malaria alanyl aminopeptidase activity blockers – biochemical, fluorogenic H-Leu-NHMec substrate, 1536-well (AID 1445)", "parameters": "species or system Plasmodium falciparum 3D7, 3D7"}, "[2]": {"assay": "Luminescence-based counterscreen assay for KLF5 inhibitors: dose response cell-based high throughput screening assay to identify cytotoxic compounds using the IEC-6 intestinal epithelial cell line. [Related pubchem assays: 1700 (Primary screen.), 1834 (Confirmation screen.), 1858 (Summary AID.), 1905 (Counterscreen.)]", "assay_type": "functional"}, "[3]": {"test_system": "HeLa", "assay": "viability loss in HeLa cells – cell-based, 24 h, cherry-picked samples, cytotoxicity control, dose response (AID 504726)", "assay_type": "functional", "conditions": "Homo sapiens"}, "[4]": {"target": "FAD-linked sulfhydryl oxidase ALR (Homo sapiens, UniProt P55789)", "sequence (P55789 whole entry)": "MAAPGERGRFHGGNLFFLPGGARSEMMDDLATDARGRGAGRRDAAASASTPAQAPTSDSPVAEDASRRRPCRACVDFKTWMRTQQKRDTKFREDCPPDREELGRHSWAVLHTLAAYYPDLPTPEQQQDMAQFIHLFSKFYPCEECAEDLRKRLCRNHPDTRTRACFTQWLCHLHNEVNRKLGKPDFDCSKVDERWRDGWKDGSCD", "assay": "ALR-catalysed DTT oxidation blockers – biochemical, H2O2 detection, luminescence, cherry-pick, dose response (AID 493248)"}, "[5]": {"target": "T2, Microphthalmia-associated transcription factor (Homo sapiens, UniProt O75030)", "T2 sequence (O75030 whole entry)": "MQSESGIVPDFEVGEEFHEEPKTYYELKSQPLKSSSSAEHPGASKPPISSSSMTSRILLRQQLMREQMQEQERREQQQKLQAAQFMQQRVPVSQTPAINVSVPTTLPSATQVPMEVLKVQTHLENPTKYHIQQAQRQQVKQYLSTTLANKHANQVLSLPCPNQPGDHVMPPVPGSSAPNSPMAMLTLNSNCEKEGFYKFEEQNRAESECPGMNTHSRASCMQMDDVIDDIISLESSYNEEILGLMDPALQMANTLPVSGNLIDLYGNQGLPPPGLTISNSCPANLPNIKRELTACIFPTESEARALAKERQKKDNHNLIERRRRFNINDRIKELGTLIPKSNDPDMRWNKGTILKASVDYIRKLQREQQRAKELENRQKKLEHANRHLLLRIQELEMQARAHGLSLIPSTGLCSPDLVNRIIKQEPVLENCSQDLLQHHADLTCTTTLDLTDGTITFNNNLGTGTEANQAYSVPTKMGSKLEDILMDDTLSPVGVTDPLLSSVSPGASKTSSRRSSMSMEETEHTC", "assay": "reducers of TRPM1 reporter luminescence, concentration series – cell-based, SK-MEL-5, cherry-picked, set 3, MITF inhibitor project, dose response (AID 493073)", "assay_type": "functional"}, "[6]": {"assay": "blockers of HIV-1 envelope-mediated cell-cell fusion – cherry-pick, dose response (AID 652057)", "assay_type": "functional, cell-based"}, "[7]": {"assay": "blockers of HIV-1 ZM109 envelope-driven cell-cell fusion – HeLa effector, CEM target cells, luciferase, cherry-pick, dose response (AID 652058)", "assay_type": "functional, cell-based"}, "[8]": {"target": "Paired box protein Pax-8 (Homo sapiens, UniProt Q06710)", "sequence (Q06710 whole entry)": "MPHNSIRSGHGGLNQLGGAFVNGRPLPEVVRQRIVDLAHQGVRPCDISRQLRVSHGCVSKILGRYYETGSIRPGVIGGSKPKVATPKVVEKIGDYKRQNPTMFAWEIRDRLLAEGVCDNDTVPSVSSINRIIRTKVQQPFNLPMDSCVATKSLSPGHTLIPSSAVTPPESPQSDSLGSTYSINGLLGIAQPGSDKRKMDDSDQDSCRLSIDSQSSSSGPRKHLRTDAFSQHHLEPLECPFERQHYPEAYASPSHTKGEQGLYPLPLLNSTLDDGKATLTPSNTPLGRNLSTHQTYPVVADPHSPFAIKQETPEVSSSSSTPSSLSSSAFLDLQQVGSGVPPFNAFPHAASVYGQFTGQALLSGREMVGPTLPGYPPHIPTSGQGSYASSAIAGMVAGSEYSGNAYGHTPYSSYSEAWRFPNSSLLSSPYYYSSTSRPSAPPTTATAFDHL", "assay": "PAX8 transcriptional activity inhibition in RMG-I – RMG-I cells, luciferase, cherry-pick, dose response (AID 687027);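 further: luciferase reporter driven by Pax8 target thyroperoxidase promoter measured by SteadyGlo luminescence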", "assay_type": "functional, cell-based"}, "[9]": {"assay": "off-target signal loss in HeLa-CEM21 co-culture – HeLa F-luc CTL cells, cherry-picked, counter-screen for HIV-1 Env fusion inhibitor project, dose response (AID 652040);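 further: potency for signal decrease marking cytotoxic or nonspecific inhibition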", "assay_type": "functional, cell-based"}, "[10]": {"assay": "HIV-1 AD8 envelope cell-cell fusion blockers – cherry-pick, dose response (AID 652062);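 further: potency is for inhibitors of fusion seen as a drop in luminescence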", "assay_type": "functional, cell-based"}, "[11]": {"assay": "blockers of bursicon-stimulated LGR2 cAMP reporter – cell-based, HEK293, CRE-luciferase reporter, cherry pick, set 2, dose response (AID 743343);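 further: transfected cells were stimulated with diluted bursicon conditioned medium after compound addition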", "assay_type": "functional"}, "[12]": {"assay": "general cell-killing toxicity readout – plate reader, dry powder samples, cytotoxicity control for PAX8 inhibitor project, dose response (AID 743021)", "assay_type": "functional, cell-based"}, "[13]": {"assay": "blockade of melanocortin 4 receptor signaling – cell-based, plate reader, cherry pick, counter-screen for LGR2 antagonist project, dose response (AID 743444);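 further: transfected HEK 293 cells stimulated with alpha-MSH peptide; potency of inhibitors of the alpha-MSH evoked signal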", "assay_type": "functional"}, "[14]": {"assay": "viability loss in HEK293 cells – cell-based, plate reader, cherry-picked samples, cytotoxicity control, dose response (AID 743446)", "assay_type": "functional"}, "[15]": {"target": "T3, Tyrosine-protein phosphatase non-receptor type 7 (Homo sapiens, UniProt P35236)", "T3 sequence (P35236 whole entry)": "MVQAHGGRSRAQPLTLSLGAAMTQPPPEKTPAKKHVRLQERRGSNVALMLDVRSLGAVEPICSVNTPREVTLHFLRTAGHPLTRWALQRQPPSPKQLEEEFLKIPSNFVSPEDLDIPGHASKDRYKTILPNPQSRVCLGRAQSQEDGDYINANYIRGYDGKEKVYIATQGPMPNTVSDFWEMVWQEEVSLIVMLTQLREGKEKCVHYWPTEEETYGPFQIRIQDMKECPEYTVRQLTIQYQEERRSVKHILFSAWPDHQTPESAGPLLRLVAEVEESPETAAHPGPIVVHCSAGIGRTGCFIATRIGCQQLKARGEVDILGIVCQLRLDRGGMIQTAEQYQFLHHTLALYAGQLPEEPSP", "assay_type": "functional"}, "[16]": {"target": "Glyceraldehyde-3-phosphate dehydrogenase (Homo sapiens, UniProt P04406)", "sequence (P04406 whole entry)": "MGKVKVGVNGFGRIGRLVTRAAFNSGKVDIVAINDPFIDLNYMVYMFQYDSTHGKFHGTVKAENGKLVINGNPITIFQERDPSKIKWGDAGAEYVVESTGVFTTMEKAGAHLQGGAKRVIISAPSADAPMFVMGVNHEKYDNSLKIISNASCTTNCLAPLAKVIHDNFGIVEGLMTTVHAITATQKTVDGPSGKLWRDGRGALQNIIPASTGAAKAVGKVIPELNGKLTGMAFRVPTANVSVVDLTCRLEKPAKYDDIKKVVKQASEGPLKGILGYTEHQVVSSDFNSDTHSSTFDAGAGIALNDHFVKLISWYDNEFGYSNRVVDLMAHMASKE"}, "[17]": {"target": "Heat shock cognate 71 kDa protein (Homo sapiens, UniProt P11142)", "sequence (P11142 whole entry)": "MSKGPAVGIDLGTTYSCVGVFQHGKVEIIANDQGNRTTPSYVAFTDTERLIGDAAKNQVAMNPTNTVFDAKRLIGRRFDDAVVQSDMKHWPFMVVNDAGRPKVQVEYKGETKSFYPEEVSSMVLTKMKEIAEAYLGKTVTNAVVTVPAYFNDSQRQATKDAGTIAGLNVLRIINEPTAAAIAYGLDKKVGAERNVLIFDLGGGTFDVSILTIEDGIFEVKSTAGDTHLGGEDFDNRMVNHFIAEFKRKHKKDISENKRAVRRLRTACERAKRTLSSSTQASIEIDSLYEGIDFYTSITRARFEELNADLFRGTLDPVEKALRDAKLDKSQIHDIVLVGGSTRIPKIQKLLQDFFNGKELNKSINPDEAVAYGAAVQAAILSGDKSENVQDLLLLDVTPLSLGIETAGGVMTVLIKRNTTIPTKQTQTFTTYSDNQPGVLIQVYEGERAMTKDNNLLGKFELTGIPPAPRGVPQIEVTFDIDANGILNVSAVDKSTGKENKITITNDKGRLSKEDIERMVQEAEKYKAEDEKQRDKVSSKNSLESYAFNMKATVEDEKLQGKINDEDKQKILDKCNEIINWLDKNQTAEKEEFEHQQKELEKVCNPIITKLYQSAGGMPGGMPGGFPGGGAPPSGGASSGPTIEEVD", "assay": "In Vitro Hsc70 Dose Response Fluorescence Polarization Assay. [Related pubchem assays: 1072 ]"}, "[18]": {"target": "Large T antigen (Simian virus 40, UniProt P03070)", "sequence (P03070 whole entry)": "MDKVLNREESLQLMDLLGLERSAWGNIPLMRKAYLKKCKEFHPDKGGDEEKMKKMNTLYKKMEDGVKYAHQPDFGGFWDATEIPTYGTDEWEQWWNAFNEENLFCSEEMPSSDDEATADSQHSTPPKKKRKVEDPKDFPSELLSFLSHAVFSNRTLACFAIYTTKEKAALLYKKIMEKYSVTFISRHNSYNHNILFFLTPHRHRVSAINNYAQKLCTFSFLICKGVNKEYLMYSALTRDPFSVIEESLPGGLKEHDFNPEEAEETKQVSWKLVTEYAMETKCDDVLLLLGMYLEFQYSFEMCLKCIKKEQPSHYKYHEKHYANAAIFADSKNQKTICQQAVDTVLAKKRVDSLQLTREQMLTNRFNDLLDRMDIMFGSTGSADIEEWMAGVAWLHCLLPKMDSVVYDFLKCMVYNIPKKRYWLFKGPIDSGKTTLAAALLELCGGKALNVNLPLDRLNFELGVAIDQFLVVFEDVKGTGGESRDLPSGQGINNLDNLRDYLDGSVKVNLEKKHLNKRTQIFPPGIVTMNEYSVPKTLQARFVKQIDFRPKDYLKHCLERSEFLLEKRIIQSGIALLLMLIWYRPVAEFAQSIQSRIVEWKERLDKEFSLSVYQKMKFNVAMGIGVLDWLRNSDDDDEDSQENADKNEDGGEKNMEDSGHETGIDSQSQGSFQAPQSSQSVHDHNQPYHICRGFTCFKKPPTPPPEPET", "assay_type": "functional, Betapolyomavirus macacae"}, "[19]": {"target": "Heat shock 70 kDa protein 1A (Homo sapiens, UniProt P0DMV8)", "sequence (P0DMV8 whole entry)": "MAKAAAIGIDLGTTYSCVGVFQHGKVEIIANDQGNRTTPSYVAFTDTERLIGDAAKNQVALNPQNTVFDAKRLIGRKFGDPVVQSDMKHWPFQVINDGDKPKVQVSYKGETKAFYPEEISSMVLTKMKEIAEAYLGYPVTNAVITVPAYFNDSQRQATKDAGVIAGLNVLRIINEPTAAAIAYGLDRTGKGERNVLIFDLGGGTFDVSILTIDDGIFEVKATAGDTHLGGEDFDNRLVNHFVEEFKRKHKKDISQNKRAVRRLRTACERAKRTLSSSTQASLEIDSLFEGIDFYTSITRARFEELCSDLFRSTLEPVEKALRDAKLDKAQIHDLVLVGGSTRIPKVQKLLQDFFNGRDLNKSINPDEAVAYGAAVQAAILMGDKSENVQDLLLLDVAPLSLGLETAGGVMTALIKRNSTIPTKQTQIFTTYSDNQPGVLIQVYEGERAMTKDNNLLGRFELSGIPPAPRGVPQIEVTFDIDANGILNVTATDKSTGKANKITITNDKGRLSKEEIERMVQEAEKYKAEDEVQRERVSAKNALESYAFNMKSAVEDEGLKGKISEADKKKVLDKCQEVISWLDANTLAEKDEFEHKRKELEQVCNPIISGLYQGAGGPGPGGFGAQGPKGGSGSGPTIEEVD", "assay": "inhibition of Hsp70 binding activity – biochemical, fluorescence polarization, SAR follow-up (AID 1072)"}, "[20]": {"target": "T4, Dual specificity protein phosphatase 6 (Rattus norvegicus, UniProt Q64346)", "T4 sequence (Q64346 whole entry)": "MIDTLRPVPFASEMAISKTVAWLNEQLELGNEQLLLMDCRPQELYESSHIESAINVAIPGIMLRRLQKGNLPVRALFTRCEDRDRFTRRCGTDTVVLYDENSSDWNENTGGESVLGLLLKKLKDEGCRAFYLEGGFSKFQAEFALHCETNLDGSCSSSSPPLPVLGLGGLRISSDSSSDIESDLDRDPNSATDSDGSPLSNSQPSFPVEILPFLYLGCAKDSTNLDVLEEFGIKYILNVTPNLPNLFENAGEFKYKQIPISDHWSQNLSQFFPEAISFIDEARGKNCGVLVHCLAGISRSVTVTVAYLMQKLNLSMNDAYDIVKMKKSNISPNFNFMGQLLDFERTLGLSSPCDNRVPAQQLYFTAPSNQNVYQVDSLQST"}, "[21]": {"target": "T4, Dual specificity protein phosphatase 6", "assay": "inhibition of rat DUSP6 enzyme activity – biochemical, in vitro, primary screen (AID 425)"}, "[22]": {"target": "Induced myeloid leukemia cell differentiation protein Mcl-1 (Homo sapiens, UniProt Q07820)", "sequence (Q07820 whole entry)": "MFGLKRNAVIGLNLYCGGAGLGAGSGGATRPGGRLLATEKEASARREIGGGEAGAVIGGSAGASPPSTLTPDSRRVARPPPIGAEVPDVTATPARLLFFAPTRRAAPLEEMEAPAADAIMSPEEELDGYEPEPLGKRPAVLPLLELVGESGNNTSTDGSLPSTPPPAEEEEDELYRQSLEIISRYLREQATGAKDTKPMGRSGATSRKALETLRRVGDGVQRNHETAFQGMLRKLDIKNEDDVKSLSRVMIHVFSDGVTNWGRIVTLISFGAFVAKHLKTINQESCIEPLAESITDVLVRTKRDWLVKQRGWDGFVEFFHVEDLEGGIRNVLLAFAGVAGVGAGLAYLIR", "assay_type": "functional"}, "[23]": {"target": "Eukaryotic translation initiation factor 4E (Mus musculus, UniProt P63073)", "sequence (P63073 whole entry)": "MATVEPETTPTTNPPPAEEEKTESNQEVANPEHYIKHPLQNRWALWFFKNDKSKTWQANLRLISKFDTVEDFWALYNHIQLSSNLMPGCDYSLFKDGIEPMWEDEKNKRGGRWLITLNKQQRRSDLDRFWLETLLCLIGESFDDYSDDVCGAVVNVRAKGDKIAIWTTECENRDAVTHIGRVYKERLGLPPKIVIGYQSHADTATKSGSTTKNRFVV", "assay": "blockers of eIF4G binding by eIF4E – biochemical, TR-FRET, dose response (AID 855);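 further: potency for disrupting eIF4E binding to eIF4GI seen as loss of FRET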", "assay_type": "functional"}, "[24]": {"target": "NS3 (Hepatitis C virus, UniProt A3EZJ3)", "sequence (A3EZJ3 whole entry)": "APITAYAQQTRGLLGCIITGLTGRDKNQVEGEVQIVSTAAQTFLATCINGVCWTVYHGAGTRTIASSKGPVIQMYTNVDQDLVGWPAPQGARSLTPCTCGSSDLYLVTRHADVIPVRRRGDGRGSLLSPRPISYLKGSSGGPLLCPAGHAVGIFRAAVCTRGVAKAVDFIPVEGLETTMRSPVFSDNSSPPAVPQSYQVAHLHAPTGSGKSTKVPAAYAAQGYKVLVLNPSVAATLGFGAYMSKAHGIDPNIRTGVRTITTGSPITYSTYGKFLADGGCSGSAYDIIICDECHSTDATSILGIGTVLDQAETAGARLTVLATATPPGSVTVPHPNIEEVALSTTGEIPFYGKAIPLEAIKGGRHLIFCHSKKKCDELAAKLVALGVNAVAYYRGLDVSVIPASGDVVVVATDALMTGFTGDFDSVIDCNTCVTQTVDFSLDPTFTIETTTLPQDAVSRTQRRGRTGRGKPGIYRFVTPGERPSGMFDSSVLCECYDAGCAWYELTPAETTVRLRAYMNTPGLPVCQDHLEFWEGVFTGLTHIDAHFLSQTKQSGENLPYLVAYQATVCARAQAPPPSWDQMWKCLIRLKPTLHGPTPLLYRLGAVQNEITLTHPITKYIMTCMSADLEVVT", "assay": "NS3h DNA-binding inhibition IC50 – biochemical, fluorescence polarization, ChemBridge library, dose response (AID 743264)"}}, "note": "The source made the active and inactive calls.", "data": [{"smiles": "Nc1ccc(-c2nc3ccc(C(=O)O)cc3s2)cc1", "values": [{"measurement": "IC50", "setting": "[1]", "value": "25.7 µM (active)"}, {"measurement": "IC50", "setting": "[2]", "value": "> 39.8 µM (not active)"}, {"measurement": "AC50", "setting": "[3]", "value": "313 µM (active)"}, {"measurement": "AC50", "setting": "[4]", "value": "0.839 µM (active)"}, {"measurement": "AC50", "setting": "[5]", "value": "0.866 µM (active)"}, {"measurement": "AC50", "setting": "[6]", "value": "1.03 µM (active)"}, {"measurement": "AC50", "setting": "[7]", "value": "4.57 µM (active)"}, {"measurement": "AC50", "setting": "[8]", "value": "2.6 µM (active)"}, {"measurement": "AC50", "setting": "[9]", "value": "1.91 µM (active)"}, {"measurement": "AC50", "setting": "[10]", "value": "1.6 µM (active)"}, {"measurement": "AC50", "setting": "[11]", "value": "0.749 µM (active)"}, {"measurement": "AC50", "setting": "[12]", "value": "30.4 µM (active)"}, {"measurement": "AC50", "setting": "[13]", "value": "0.649 µM (active)"}, {"measurement": "AC50", "setting": "[14]", "value": "48.6 µM (active)"}]}, {"smiles": "Cc1ccc2c(c1)C1C=CCC1C(C(=O)O)N2", "note": "(centres undefined)", "values": [{"measurement": "IC50", "setting": "[15]", "value": "15.6 µM (active)"}, {"measurement": "IC50", "setting": "[16]", "value": "70.7 µM (active)"}, {"measurement": "IC50", "setting": "[17]", "value": "> 100 µM (not active)"}, {"measurement": "IC50", "setting": "[18]", "value": "9.1 µM (active)"}, {"measurement": "IC50", "setting": "[19]", "value": "4.77 µM (active)"}, {"measurement": "IC50", "setting": "[20]", "value": "8 µM (active)"}, {"measurement": "IC50", "setting": "[21]", "value": "> 10 µM (not active)"}, {"measurement": "IC50", "setting": "[22]", "value": "> 54 µM (active)"}, {"measurement": "IC50", "setting": "[23]", "value": "5.44 µM (active)"}, {"measurement": "IC50", "setting": "[24]", "value": "37.5 µM (inactive)"}]}]}
